The text below walks through data of patent US4904672A, “Derivatives of 3-hydroxyazabenzo[b]thiophene useful as 5-lipoxygenase inhibitors” (Merck & Co., Inc., priority 1988, dated 1990).

What is called inhibition is the share of the control response that was lost under treatment.

This assay concerns the target T1, PMN 5-lipoxygenase (Rattus norvegicus, UniProt P12527).
T1 sequence (P12527 1-673): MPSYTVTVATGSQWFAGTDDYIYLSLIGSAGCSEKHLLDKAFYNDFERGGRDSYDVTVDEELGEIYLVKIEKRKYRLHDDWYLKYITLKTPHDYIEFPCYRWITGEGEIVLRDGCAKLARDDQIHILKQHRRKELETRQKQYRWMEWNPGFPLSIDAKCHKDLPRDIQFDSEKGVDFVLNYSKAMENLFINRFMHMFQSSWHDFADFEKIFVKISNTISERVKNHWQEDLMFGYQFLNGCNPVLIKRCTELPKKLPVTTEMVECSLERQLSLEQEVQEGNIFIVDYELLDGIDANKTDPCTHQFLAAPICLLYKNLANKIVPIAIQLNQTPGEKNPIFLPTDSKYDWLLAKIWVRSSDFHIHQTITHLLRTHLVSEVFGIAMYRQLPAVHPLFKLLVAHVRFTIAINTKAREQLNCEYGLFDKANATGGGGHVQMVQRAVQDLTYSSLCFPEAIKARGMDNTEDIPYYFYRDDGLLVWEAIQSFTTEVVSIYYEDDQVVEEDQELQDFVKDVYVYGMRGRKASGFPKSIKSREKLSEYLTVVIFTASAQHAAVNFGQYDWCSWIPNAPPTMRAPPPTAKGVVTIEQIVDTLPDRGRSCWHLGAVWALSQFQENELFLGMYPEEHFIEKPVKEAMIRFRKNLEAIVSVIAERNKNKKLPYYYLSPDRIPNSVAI
Description: Inhibition of PMN 5-lipoxygenase in the rat (LTB4 by RIA, A23187-stimulated PMN). The assay is classed as cell-based, rat (male Sprague-Dawley). As to conditions: for inhibition at 30 µg/mL: dose 0.03 mg/ml; for inhibition at 1000 µg/mL: dose 1 mg/ml; for inhibition at 10 µg/mL: dose 0.01 mg/ml. On the procedure:
2. Inhibition of PMN 5-lipoxygenase in the rat Methods
Male Sprague-Dawley rates under ether anesthesia were injected i.p. with 8 mls of 12% aqueous sodium caseinate. After 15-24 hours the animals were sacrificed with CO2 and the peritoneal cavities were lavaged with Eagles MEM with Earles salts and containing L-glutamine and 30 mM HEPES. The pH was adjusted to 7.4. The lavage fluid was centrifuged for 5 minutes at 350×g at room temperature. The cells were resuspended in fresh medium and filtered through lens paper. The cells were pelleted again and reconstituted to concentration of 1×10^7 cells/ml with fresh medium.
The experiments were run as follows: 0.5μ of test compound in DMSO or 0.5 μl DMSO alone was added to reaction tubes. 0.5 ml aliquots of the stirred PMN suspension maintained at 37° C. were then added. After 2 minutes, 0.5 μl of 10 mM A23187 (final concentration=10 μM) or 0.5 μl of DMSO was added and allowed to incubate for 4 additional minutes at 37° C. The reaction was stopped by the addition of 0.5 ml of cold methanol. The precipitated proteins were removed by centrifugation and the supernatant fluid was analyzed via RIA or HPLC.
Radioimmunoassay determinations of LTB4
Radioimmunoassays were performed using the dextran-coated charcoal binding method as described by J. L. Humes in Methods for Studying Mononuclear Phagocytes (Eds. D. Adams et al.) p. 641, Academic Press, N.Y. (1981).
Aliquots, 2 μl, of the supernatant fluids were added to assay tubes and incubated for 10 minutes at 37° C. to remove methanol. Fifty μl of tissue culture medium M-199 containing 1 percent heat-inactivated-porcine serum was then added to each tube. Standard amounts of LTB4 were also prepared in this medium so that 50 μl aliquots contained 25-1000 pg. Antisera to LTB4 was diluted 1:3000 with 10 mM potassium phosphate, pH 7.3 containing 1 mM ethylenediaminetetracetic acid and 0.25 mM thimerasol (PET buffer). Aliquots, 100 μl, of the diluted antisera were added to both standard and unknown tubes and incubated at room temperature for 0.5 hour. (5,6,8,9,11,12,14,15-^3 H)-LTB4 (Amersham, 150 Ci/mMol) was diluted with PET to a concentration of 1 nCi/ml. Aliquots, 100 μl , were added and the mixture incubated for 2 hours at room temperature or alternatively overnight at 4° C. One ml of dextran-coated charcoal solution is added to all tubes. After centrifugation for 10 minutes at 1000×g the radioactivity in the supernatant fluid was determined.
The dextran-coated charcoal removes the unbound ^3 H-LTB4. Therefore in this procedure the antibody-bound-^3 H-LTB4 is measured. The RIA^4 determinations are performed on single samples.

`COc1ccc(-c2sc3cc(C)nc(C)c3c2OC(C)=O)cc1`: the inhibition at 30 µg/mL was found to be 4%. Where the note is “dose 0.1 mg/ml”, this compound gave an inhibition at 100 µg/mL of 45%. This compound also displayed an inhibition at 300 µg/mL (dose 0.3 mg/ml) of 75%.
Take `COc1ccc(-c2sc3cccnc3c2OC(C)=O)cc1` [N=4, R=(CO)CH3, X1=H, X2=p-OCH3, 3-Acetyloxy-2-(4-methoxyphenyl)-4-azabenzo[b]thiophene]: testing at 1000 µg/mL gave an inhibition of 100%. The same compound had an inhibition at 100 µg/mL (dose 0.1 mg/ml) of 21%. Moreover, the inhibition at 300 µg/mL (dose 0.3 mg/ml) came to 73%.
With `CC(=O)Oc1c(-c2ccccc2)sc2ccncc12` [N=5, R=(CO)CH3, X1=H, X2=H, 3-Acetyloxy-5-aza-2-phenylbenzo[b]thiophene], 37 µg/mL produced 58% inhibition (dose 0.037 mg/ml). This compound also showed an inhibition at 100 µg/mL (dose 0.1 mg/ml) of 97%. Besides, the inhibition at 300 µg/mL (dose 0.3 mg/ml) turned out to be 100%.
Consider `COc1ccc(-c2sc3ccncc3c2OC(C)=O)cc1` [N=5, R=(CO)CH3, X1=H, X2=p-OCH3, 3-Acetyloxy-5-aza-2-(4-methoxyphenyl)benzo[b]thiophene], for which at 37 µg/mL the inhibition (dose 0.037 mg/ml) was 22%. Moreover, for the setting “dose 0.1 mg/ml”, the “% Inhibition (PMN 5-lipoxygenase)” value came out at 60% and the inhibition at 100 µg/mL amounted to 80%. Further, where the note is “dose 0.3 mg/ml”, the “% Inhibition (PMN 5-lipoxygenase)” value is recorded as 100% and testing at 300 µg/mL gave an inhibition of 99%.
Turning to `Cc1cc2sc(-c3ccccc3)c(O)c2c(C)n1` [N=5, R=H, X1=4-CH3,6-CH3, X2=H], the inhibition at 1000 µg/mL is 99%. In addition, at 100 µg/mL the inhibition (dose 0.1 mg/ml) was 43%. The compound also displayed an inhibition at 300 µg/mL (dose 0.3 mg/ml) of 90%.
Under “dose 0.3 mg/ml”, `COc1ccc(-c2sc3ccncc3c2O)cc1` [N=5, R=H, X1=H, X2=p-OCH3, 5-Aza-3-hydroxy-2-(4-methoxyphenyl)-benzo[b]thiophene] yielded an inhibition at 300 µg/mL of 100%. In addition, the inhibition at 400 µg/mL (dose 0.4 mg/ml) was 63%.
The compound `COc1ccc(-c2sc3cnccc3c2O)cc1` [N=6, R=H, X1=H, X2=p-OCH3, 3-Hydroxy-2-(4-methoxyphenyl)-6-azabenzo[b]thiophene] showed an inhibition at 30 µg/mL of 45%. Where the note is “dose 0.1 mg/ml”, this compound came in with an inhibition at 100 µg/mL of 79%. The compound also displayed an inhibition at 300 µg/mL (dose 0.3 mg/ml) of 100%.
In turn, `CC(=O)Oc1c(-c2ccccc2)sc2nccc(Cl)c12` [N=7, R=(CO)CH3, X1=4-Cl, X2=H] gave an inhibition at 1000 µg/mL of 100%. The compound further yielded an inhibition at 37 µg/mL (dose 0.037 mg/ml) of 22%. Besides, testing at 100 µg/mL (dose 0.1 mg/ml) gave an inhibition of 32%.
`CC(=O)Oc1c(-c2ccccc2)sc2nc(Cl)ccc12` [N=7, R=(CO)CH3, X1=6-Cl, X2=H] had an inhibition at 1000 µg/mL of 100%. Besides, testing at 100 µg/mL (dose 0.1 mg/ml) gave an inhibition of 63%. The compound also came in with an inhibition at 300 µg/mL (dose 0.3 mg/ml) of 82%.
Compound `CC(=O)Oc1c(-c2ccccc2)sc2ncccc12` [N=7, R=(CO)CH3, X1=H, X2=H, 7-aza-3-acetyloxy-2-phenyl-benzo[b]thiophene] came in with an inhibition at 10 µg/mL of 40%. This compound yielded an inhibition at 37 µg/mL (dose 0.037 mg/ml) of 95%. In addition, 100 µg/mL produced 100% inhibition (dose 0.1 mg/ml).
The compound `COc1cccc(-c2sc3ncccc3c2OC(C)=O)c1` [N=7, R=(CO)CH3, X1=H, X2=m-OCH3] had an inhibition at 37 µg/mL (dose 0.037 mg/ml) of 52%. This compound had an inhibition at 100 µg/mL (dose 0.1 mg/ml) of 97%. Moreover, testing at 300 µg/mL (dose 0.3 mg/ml) gave an inhibition of 100%.
In turn, `COc1ccccc1-c1sc2ncccc2c1OC(C)=O` [N=7, R=(CO)CH3, X1=H, X2=o-OCH3] registered an inhibition at 30 µg/mL of 33%. The compound also registered an inhibition at 100 µg/mL (dose 0.1 mg/ml) of 73%. In addition, for the setting “dose 0.3 mg/ml”, the inhibition at 300 µg/mL came to 100%.
Compound `CC(=O)Oc1c(-c2ccc(C(F)(F)F)cc2)sc2ncccc12` [N=7, R=(CO)CH3, X1=H, X2=p-CF3] had an inhibition at 1000 µg/mL of 100%. Further, the inhibition at 100 µg/mL (dose 0.1 mg/ml) is 61%. Besides, testing at 300 µg/mL (dose 0.3 mg/ml) gave an inhibition of 100%.
On to `CC(=O)Oc1c(-c2ccc(C#N)cc2)sc2ncccc12` [N=7, R=(CO)CH3, X1=H, X2=p-CN], for which, for the setting “dose 0.037 mg/ml”, 37 µg/mL produced 39% inhibition. The same compound came in with an inhibition at 100 µg/mL (dose 0.1 mg/ml) of 77%. 300 µg/mL produced 100% inhibition (dose 0.3 mg/ml).
Consider `CC(=O)Oc1c(-c2ccc(F)cc2)sc2ncccc12` [N=7, R=(CO)CH3, X1=H, X2=p-F, 7-aza-3-acetyloxy-2-(4-fluorophenyl)-benzo[b]thiophene], for which the inhibition at 10 µg/mL is 24%. For the setting “dose 0.037 mg/ml”, this compound showed an inhibition at 37 µg/mL of 49%. In addition, for the setting “dose 0.1 mg/ml”, at 100 µg/mL the inhibition was 100%.
Turning to `COc1ccc(-c2sc3ncccc3c2OC(C)=O)cc1` [N=7, R=(CO)CH3, X1=H, X2=p-OCH3], where the note is “dose 0.037 mg/ml”, the “% Inhibition (PMN 5-lipoxygenase)” value came out at 70% and 37 µg/mL produced 59% inhibition. The compound further yielded an inhibition at 100 µg/mL (dose 0.1 mg/ml) of 100%.
The compound `CC(=O)Oc1c(-c2ccccc2)sc2nc(C(C)(C)C)ccc12` [N=7, R=(CO)CH3, X1=t-Bu, X2=H, 3-Acetoxy-6-(1,1-dimethylethyl)-2-phenyl-7-azabenzo[b]thiophene] registered an inhibition at 30 µg/mL of 23% and an inhibition at 1000 µg/mL of 95%. Besides, 100 µg/mL produced 34% inhibition (dose 0.1 mg/ml). Where the note is “dose 0.3 mg/ml”, this compound gave an inhibition at 300 µg/mL of 70%.
For `Oc1c(-c2ccccc2)sc2ncccc12` [N=7, R=H, X1=H, X2=H, 3-Hydroxy-2-phenyl-7-azabenzo[b]thiophene], for the setting “dose 0.012 mg/ml”, the inhibition at 12 µg/mL amounted to 32%. For the setting “dose 0.1 mg/ml”, this compound yielded an inhibition at 100 µg/mL of 100%.
Regarding `COc1cccc(-c2sc3ncccc3c2O)c1` [N=7, R=H, X1=H, X2=m-OCH3, 7-Aza-3-hydroxy-2-(3-methoxyphenyl)-benzo[b]thiophene], at 30 µg/mL the inhibition was 76%. Under “dose 0.1 mg/ml”, this compound returned an inhibition at 100 µg/mL of 100%. The compound further registered an inhibition at 300 µg/mL (dose 0.3 mg/ml) of 100%.
In turn, `Oc1c(-c2ccc(F)cc2)sc2ncccc12` [N=7, R=H, X1=H, X2=p-F] yielded an inhibition at 10 µg/mL of 32%. Besides, where the note is “dose 0.037 mg/ml”, at 37 µg/mL the inhibition was 88%. The compound further showed an inhibition at 100 µg/mL (dose 0.1 mg/ml) of 99%. This compound came in with an inhibition at 300 µg/mL (dose 0.3 mg/ml) of 100%.
Turning to `COc1ccc(-c2sc3ncccc3c2O)cc1` [N=7, R=H, X1=H, X2=p-OCH3], under “dose 0.037 mg/ml”, the inhibition at 37 µg/mL amounted to 24%. The same compound came in with an inhibition at 100 µg/mL (dose 0.1 mg/ml) of 100%.
On to `CC(C)(C)c1ccc2c(O)c(-c3ccccc3)sc2n1` [N=7, R=H, X1=t-Bu, X2=H, 6-(1,1-dimethylethyl)-3-hydroxy-2-phenyl-7-azabenzo[b]thiophene], for which the inhibition at 1000 µg/mL amounted to 98%. In addition, 100 µg/mL produced 53% inhibition (dose 0.1 mg/ml). In addition, the inhibition at 300 µg/mL (dose 0.3 mg/ml) turned out to be 98%.
As to `Oc1c(-c2cccnc2)sc2ncccc12` [drawing 24, N=7, R=H, X1=H, X2=H], at 30 µg/mL the inhibition was 0% and the inhibition at 1000 µg/mL worked out at 98%. This compound displayed an inhibition at 100 µg/mL (dose 0.1 mg/ml) of 39%. This compound showed an inhibition at 300 µg/mL (dose 0.3 mg/ml) of 94%.
Consider `COc1ccc(-c2sc3c[n+]([O-])ccc3c2OC(C)=O)cc1` [drawing 25, N=6, R=(CO)CH3, X1=H], for which the inhibition at 1000 µg/mL was determined as 90%. Besides, at 100 µg/mL the inhibition (dose 0.1 mg/ml) was 33%. For the same compound, where the note is “dose 0.3 mg/ml”, 300 µg/mL produced 49% inhibition.
